Data: paper PMC5063900, “A phase 1 study of the safety, tolerability, pharmacokinetics, and pharmacodynamics of TAK-063, a selective PDE10A inhibitor” (Psychopharmacology, 2016)

Experiment: Treatment-emergent adverse events, phase 1 single-rising-dose study in healthy subjects
Format: in vivo, human
Method: Healthy Japanese and non-Japanese subjects between 18 and 55 years of age were recruited to participate in the study. Criteria for exclusion included prior treatment with any investigational compound within 30 days of the first TAK-063 dose, a positive test for drugs of abuse or nicotine, and an increased risk for suicide. […] Following a washout period of 7 days, subjects in cohort 3 (100 mg) received the same dose (100 mg) but under fed conditions.
The study assessed safety and tolerability in all subjects for the 4-day study duration. The primary endpoints were the percentage of subjects who experienced at least one treatment-emergent adverse event (TEAE), as well as the percentage of subjects who met predefined criteria for safety laboratory tests, vital sign measurements, and safety parameters following TAK-063 administration. The secondary endpoints were PK parameters for TAK-063 and M-I, assessing drug exposure at each dose, and the effect of food coadministration on TAK-063 PK. Exploratory endpoints included the effects of TAK-063 on domains of cognition as assessed by a computerized battery, CNS Vital Signs (CNSVS).
Adverse events, clinical laboratory tests, vital signs, 12-lead electrocardiograms (ECGs), and Columbia-Suicide Severity Rating Scale (C-SSRS) were all monitored. Intensity of AEs was classified as mild, moderate, or severe, and each AE was classified as to its relation to study drug.
Laboratory tests evaluated hematology, serum chemistry, urine, and hormone levels. Vital signs and ECGs were collected at screening, check-in, within 1 h predose, serially postdose, and at study exit, while the C-SSRS was administered at screening, check-in, and study exit. Any events reported on the C-SSRS and clinically significant laboratory abnormalities were reported as AEs.

[1] = all subjects, single 30 mg dose (n = 11)
[2] = all subjects, single 100 mg dose (n = 11)
[3] = all subjects, single 300 mg dose (n = 11)
[4] = all subjects, single 1000 mg dose (n = 11)
[5] = non-Japanese subjects, TAK-063 Total (n = 36)
[6] = non-Japanese subjects, single 3 mg dose (n = 6)
[7] = non-Japanese subjects, single 10 mg dose (n = 6)
[8] = non-Japanese subjects, single 30 mg dose (n = 6)
[9] = non-Japanese subjects, single 100 mg dose (n = 6)
[10] = non-Japanese subjects, single 300 mg dose (n = 6)
[11] = non-Japanese subjects, single 1000 mg dose (n = 6)

COc1cn(-c2ccc(-n3cccn3)cc2F)nc(-c2ccnn2-c2ccccc2)c1=O [TAK-063]
Adverse event: Somnolence [1]: 4 (36.4) n (%) | Adverse event: Vomiting [1]: 0 n (%) | Adverse event: Anxiety [2]: 0 n (%) | Adverse event: Blurred vision [2]: 0 n (%) | Adverse event: Dizziness [2]: 0 n (%) | Adverse event: Dysarthria [2]: 0 n (%) | Adverse event: Epistaxis [2]: 0 n (%) | Adverse event: Headache [2]: 1 (9.1) n (%) | Adverse event: Hypotension [2]: 1 (9.1) n (%) | Adverse event: Muscle tightness [2]: 0 n (%) | Adverse event: Nausea [2]: 0 n (%) | Adverse event: Orthostatic hypotension [2]: 1 (9.1) n (%) | Adverse event: Orthostatic tachycardia [2]: 2 (18.2) n (%) | Adverse event: Somnolence [2]: 7 (63.6) n (%) | Adverse event: Vomiting [2]: 1 (9.1) n (%) | Adverse event: Anxiety [3]: 0 n (%) | Adverse event: Blurred vision [3]: 0 n (%) | Adverse event: Dizziness [3]: 1 (9.1) n (%) | Adverse event: Dysarthria [3]: 0 n (%) | Adverse event: Epistaxis [3]: 0 n (%) | Adverse event: Headache [3]: 1 (9.1) n (%) | Adverse event: Hypotension [3]: 0 n (%) | Adverse event: Muscle tightness [3]: 0 n (%) | Adverse event: Nausea [3]: 0 n (%) | Adverse event: Orthostatic hypotension [3]: 1 (9.1) n (%) | Adverse event: Orthostatic tachycardia [3]: 1 (9.1) n (%) | Adverse event: Somnolence [3]: 5 (45.5) n (%) | Adverse event: Vomiting [3]: 1 (9.1) n (%) | Adverse event: Anxiety [4]: 1 (9.1) n (%) | Adverse event: Blurred vision [4]: 1 (9.1) n (%) | Adverse event: Dizziness [4]: 1 (9.1) n (%) | Adverse event: Dysarthria [4]: 1 (9.1) n (%) | Adverse event: Epistaxis [4]: 0 n (%) | Adverse event: Headache [4]: 0 n (%) | Adverse event: Hypotension [4]: 0 n (%) | Adverse event: Muscle tightness [4]: 0 n (%) | Adverse event: Nausea [4]: 1 (9.1) n (%) | Adverse event: Orthostatic hypotension [4]: 5 (45.5) n (%) | Adverse event: Orthostatic tachycardia [4]: 7 (63.6) n (%) | Adverse event: Somnolence [4]: 6 (54.5) n (%) | Adverse event: Vomiting [4]: 1 (9.1) n (%) | Total incidence of TEAEs (non-Japanese subjects treated with TAK-063): 52.8% | Adverse event: Anxiety [5]: 1 (2.8) n (%) | Adverse event: Blurred vision [5]: 1 (2.8) n (%) | Adverse event: Dizziness [5]: 2 (5.6) n (%) | Adverse event: Dysarthria [5]: 1 (2.8) n (%) | Adverse event: Headache [5]: 1 (2.8) n (%) | Adverse event: Hypotension [5]: 1 (2.8) n (%) | Adverse event: Nausea [5]: 2 (5.6) n (%) | Adverse event: Orthostatic hypotension [5]: 3 (8.3) n (%) | Adverse event: Orthostatic tachycardia [5]: 8 (22.2) n (%) | Adverse event: Somnolence [5]: 12 (33.3) n (%) | Adverse event: Vomiting [5]: 1 (2.8) n (%) | Adverse event: Anxiety [6]: 0 n (%) | Adverse event: Blurred vision [6]: 0 n (%) | Adverse event: Dizziness [6]: 0 n (%) | Adverse event: Dysarthria [6]: 0 n (%) | Adverse event: Headache [6]: 0 n (%) | Adverse event: Hypotension [6]: 0 n (%) | Adverse event: Nausea [6]: 0 n (%) | Adverse event: Orthostatic hypotension [6]: 0 n (%) | Adverse event: Orthostatic tachycardia [6]: 2 (33.3) n (%) | Adverse event: Somnolence [6]: 0 n (%) | Adverse event: Vomiting [6]: 0 n (%) | Adverse event: Anxiety [7]: 0 n (%) | Adverse event: Blurred vision [7]: 0 n (%) | Adverse event: Dizziness [7]: 0 n (%) | Adverse event: Dysarthria [7]: 0 n (%) | Adverse event: Headache [7]: 0 n (%) | Adverse event: Hypotension [7]: 0 n (%) | Adverse event: Nausea [7]: 0 n (%) | Adverse event: Orthostatic hypotension [7]: 0 n (%) | Adverse event: Orthostatic tachycardia [7]: 0 n (%) | Adverse event: Somnolence [7]: 0 n (%) | Adverse event: Vomiting [7]: 0 n (%) | Adverse event: Anxiety [8]: 0 n (%) | Adverse event: Blurred vision [8]: 0 n (%) | Adverse event: Dizziness [8]: 1 (16.7) n (%) | Adverse event: Dysarthria [8]: 0 n (%) | Adverse event: Headache [8]: 0 n (%) | Adverse event: Hypotension [8]: 0 n (%) | Adverse event: Nausea [8]: 2 (33.3) n (%) | Adverse event: Orthostatic hypotension [8]: 0 n (%) | Adverse event: Orthostatic tachycardia [8]: 0 n (%) | Adverse event: Somnolence [8]: 3 (50.0) n (%) | Adverse event: Vomiting [8]: 0 n (%) | Adverse event: Anxiety [9]: 0 n (%) | Adverse event: Blurred vision [9]: 0 n (%) | Adverse event: Dizziness [9]: 0 n (%) | Adverse event: Dysarthria [9]: 0 n (%) | Adverse event: Headache [9]: 0 n (%) | Adverse event: Hypotension [9]: 1 (16.7) n (%) | Adverse event: Nausea [9]: 0 n (%) | Adverse event: Orthostatic hypotension [9]: 0 n (%) | Adverse event: Orthostatic tachycardia [9]: 2 (33.3) n (%) | Adverse event: Somnolence [9]: 3 (50.0) n (%) | Adverse event: Vomiting [9]: 0 n (%) | Adverse event: Anxiety [10]: 0 n (%) | Adverse event: Blurred vision [10]: 0 n (%) | Adverse event: Dizziness [10]: 1 (16.7) n (%) | Adverse event: Dysarthria [10]: 0 n (%) | Adverse event: Headache [10]: 1 (16.7) n (%) | Adverse event: Hypotension [10]: 0 n (%) | Adverse event: Nausea [10]: 0 n (%) | Adverse event: Orthostatic hypotension [10]: 0 n (%) | Adverse event: Orthostatic tachycardia [10]: 0 n (%) | Adverse event: Somnolence [10]: 3 (50.0) n (%) | Adverse event: Vomiting [10]: 1 (16.7) n (%) | Adverse event: Anxiety [11]: 1 (16.7) n (%) | Adverse event: Blurred vision [11]: 1 (16.7) n (%) | Adverse event: Dizziness [11]: 0 n (%) | Adverse event: Dysarthria [11]: 1 (16.7) n (%) | Adverse event: Headache [11]: 0 n (%) | Adverse event: Hypotension [11]: 0 n (%) | Adverse event: Nausea [11]: 0 n (%) | Adverse event: Orthostatic hypotension [11]: 3 (50.0) n (%) | Adverse event: Orthostatic tachycardia [11]: 4 (66.7) n (%) | Adverse event: Somnolence [11]: 3 (50.0) n (%) | Adverse event: Vomiting [11]: 0 n (%) | Association with hyperprolactinemia, hyperglycemia, or other metabolic disturbances (single dose): not associated | Deaths, serious AEs (single doses 3 to 1000 mg): No deaths or other serious AEs were reported | Maximum tolerated dose (single doses up to 1000 mg): not defined | Safety and tolerability (single doses up to 1000 mg): safe and well tolerated
